Like-named read-outs stand apart in the source and are kept apart here.
Tests used:
FLAG-Uba1 [1] = molecular target: T1, FLAG-Uba1 (Homo sapiens, UniProt P22314); assay: AlphaScreen Uba1~ubiquitin thioester formation; type: biochemical
T1 construct: GST- and FLAG-tagged human Uba1 in pBJ842, expressed in S. cerevisiae BJ5654, GST cleaved with PreScission protease, FLAG tag kept
T1 sequence (P22314 2-1058): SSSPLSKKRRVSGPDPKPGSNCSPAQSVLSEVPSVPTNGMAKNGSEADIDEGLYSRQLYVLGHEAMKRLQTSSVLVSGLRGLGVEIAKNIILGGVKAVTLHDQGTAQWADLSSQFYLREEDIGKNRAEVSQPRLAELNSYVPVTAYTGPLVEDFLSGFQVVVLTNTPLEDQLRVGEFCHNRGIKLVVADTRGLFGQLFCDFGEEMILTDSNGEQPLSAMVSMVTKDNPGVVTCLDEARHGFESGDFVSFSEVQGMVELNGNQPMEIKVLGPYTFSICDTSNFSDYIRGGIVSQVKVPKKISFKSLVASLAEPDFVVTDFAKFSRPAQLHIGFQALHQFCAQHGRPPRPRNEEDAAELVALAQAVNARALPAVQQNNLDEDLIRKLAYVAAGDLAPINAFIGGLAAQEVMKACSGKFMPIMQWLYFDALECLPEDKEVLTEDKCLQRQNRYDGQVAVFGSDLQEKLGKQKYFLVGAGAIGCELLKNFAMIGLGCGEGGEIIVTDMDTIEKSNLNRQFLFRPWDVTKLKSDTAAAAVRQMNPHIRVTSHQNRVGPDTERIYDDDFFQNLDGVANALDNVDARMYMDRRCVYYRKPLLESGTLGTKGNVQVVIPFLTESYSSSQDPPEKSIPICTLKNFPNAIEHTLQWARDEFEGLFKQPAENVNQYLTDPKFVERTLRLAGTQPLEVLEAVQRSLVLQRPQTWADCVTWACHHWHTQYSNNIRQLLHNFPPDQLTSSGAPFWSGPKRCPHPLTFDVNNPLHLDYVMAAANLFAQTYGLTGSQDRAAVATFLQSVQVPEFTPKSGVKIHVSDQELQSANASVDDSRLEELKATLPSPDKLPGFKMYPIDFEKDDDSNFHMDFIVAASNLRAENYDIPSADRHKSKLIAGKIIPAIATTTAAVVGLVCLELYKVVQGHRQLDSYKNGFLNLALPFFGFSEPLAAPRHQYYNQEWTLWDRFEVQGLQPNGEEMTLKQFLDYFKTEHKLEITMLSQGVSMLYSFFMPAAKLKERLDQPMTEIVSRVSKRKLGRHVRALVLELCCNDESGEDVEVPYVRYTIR

FLAG-Uba1 [2] = molecular target: T1, FLAG-Uba1; assay: AlphaScreen Uba1~ubiquitin thioester formation; type: biochemical; conditions: read-out: IC50for inhibition of PCNA ubiquitination (Alpha)
Text: AlphaScreen Uba1~ubiquitin thioester formation on FLAG-Uba1

[3] = read-out: IC50for inhibition of Uba1~Ub thioester formation (Alpha)
[4] = read-out: IC50for inhibition of PCNA ubiquitination (Alpha)

| Compound | IC50 (FLAG-Uba1 [1]; [3]) [µM] | also measured |
| --- | --- | --- |
| CCCCCCCCCCCCOC(=O)c1cc(O)c(O)c(O)c1 [DG] | 44.4 |  |
| O=c1c(O)c(-c2cc(O)c(O)c(O)c2)oc2cc(O)cc(O)c12 [Myr] | 1.59 |  |
| CCCOC(=O)c1cc(O)c(O)c(O)c1 [PG] |  | IC50 (FLAG-Uba1 [1]; [4]): > 500 µM |
| CCCCCCCCOC(=O)c1cc(O)c(O)c(O)c1 [OG] |  | IC50 (FLAG-Uba1 [1]; 15 min preincubation, biotin-ubiquitin, 2 mM ATP, 8 mM MgCl2, pH 7.5, 25 °C, 30 min, 1% DMSO, read-out: IC50for inhibition of Uba1~Ub thioester formation (Alpha)): 13.4 µM |
| Oc1cc(O)c2c(c1)O[C@H](c1ccc(O)c(O)c1)[C@H](O)C2 [EC] |  | IC50 (FLAG-Uba1 [1]; [4]): > 500 µM |
| O=C(O)c1cc(O)c(O)c(O)c1 [GA] |  | IC50 (FLAG-Uba1 [2]): > 500 µM |
| Oc1cc(O)c2c(c1)O[C@H](c1ccc(O)c(O)c1)[C@@H](O)C2 [Cat] |  | IC50 (FLAG-Uba1 [1]; read-out: IC50for inhibition of PCNA ubiquitination (Western blot) [19]): > 500 µM |

Continued, in another order:

| IC50 (FLAG-Uba1 [1]; [3]) [µM] | Compound | also measured |
| --- | --- | --- |
| 0.769 | O=C(O[C@@H]1Cc2c(O)cc(O)cc2O[C@@H]1c1ccc(O)c(O)c1)c1cc(O)c(O)c(O)c1 [ECG] |  |
| 5.96 | Oc1cc(O)c2c(c1)O[C@H](c1cc(O)c(O)c(O)c1)[C@H](O)C2 [EGC] |  |
| 27.5 | O=C1c2c(O)cc(O)cc2O[C@H](c2cc(O)c(O)c(O)c2)[C@H]1O [DM] |  |
